Test [1] is described as follows: Comparison of ability to catalyze peptide formation with known enzymes. It counts as biochemical. The following applies: enzyme of present invention = 100.0. An excerpt:
The peptide-forming ability of the present enzyme was compared with that of known enzymes. Carboxypeptidase Y described in EP 278787A1 and the thiol endopeptidases (ficin, papain, bromelain, and chymopapain) described in EP 359399B1 were used as the known enzymes, and they were used in the form of purified enzymes (manufactured by Sigma). The enzyme uniformly purified in Example 3 was used as a source of the present enzyme of the present invention. […] As has been described above, the present enzyme was verified to have an extremely high peptide production rate unlike any known enzyme in the prior art. Furthermore, the enzyme of the present invention is a dimer having a molecular weight of about 75,000. In contrast, the molecular weight of the carboxypeptidase Y has been reported to be about 61,000, while the molecular weight of thiol endopeptidase has been reported to be about 23,000 to 36,000. Thus, the L-alanyl-L-glutamine production rate of the enzyme of the present invention as compared to those of the carboxypeptidase Y and the thiol endopeptidase is even greater when the rate is expressed per molecular weight than when it is expressed per unit weight as indicated in the examples.

For test [2], the system named is peptide-forming enzyme from Empedobacter brevis strain FERM BP-8113. The test can be described thus: Substrate specificity of enzyme (peptide production from carboxy and amine components). More on the design: key: +: those for which production was confirmed but which were unable to be quantified due to the absence of a standard; a trace amount. Type of test: biochemical.

Test [3] shares this test system. The test is described as above. It counts as biochemical. More on the design: key: +: those peptides for which production was confirmed but which were unable to be quantified due to the absence of a standard; a trace amount. The following applies: 0.1 unit enzyme, 25° C.
Test [4] deals with Empedobacter brevis strain FERM BP-8113 microbial cells. Kind of test: Production of peptide using microbial cells of Empedobacter brevis. Type of test: cell-based. The conditions noted are these: 1 mL 100 g/L cell suspension + 1 mL buffer with 200 mM carboxy component, 400 mM amino acid, 10 mM EDTA, pH 9.0, 18° C., 2 hours. The procedure: A 50 mL medium (pH 6.2) containing 5 grams (g) of glucose, 5 g of ammonium sulfate, 1 g of monopotassium phosphate, 3 g of dipotassium phosphate, 0.5 g of magnesium sulfate, 10 g of yeast extract and 10 g of peptone in 1 liter (L) was transferred to a 500 mL Sakaguchi flask and sterilized at 115° C. for 15 minutes.
Microbial cells were collected by centrifuging (10,000 rounds per minute (rpm), 15 minutes) the culture broth obtained in Example 1, followed by suspending them to a concentration of 100 g/L in 100 mM borate buffer (pH 9.0) containing 10 mM EDTA. After respectively adding 1 mL of the suspension to 1 mL each of 100 mM borate buffer solutions (pH 9.0) containing 10 mM EDTA, 200 mM of the following carboxy components, and 400 mM of the following amino acids to make a final volume of 2 mL, the reaction was carried out at 18° C. for 2 hours.

The test system of test [5] is peptide-forming enzyme from Empedobacter brevis strain FERM BP-8113. Kind of test: Substrate specificity of enzyme (peptide production from carboxy and amine components). Type of test: biochemical. The conditions noted are these: L-amino acid methyl ester hydrochloride 100 mM, 150 mM L-glutamine, pH 9.0, 25° C., 3 hours. From the text:
Ester specificity was examined in the case of using L-amino acid ester for the carboxy component. […] HCl represents hydrochloride in Table 4.
Peptide production was examined in the case of using L-alanine methyl ester for the carboxy component and using various L-amino acids for the amine component.
Peptide production was examined in the case of using various types of L-amino acid methyl esters for the carboxy component and using L-glutamine for the amine component. […] Furthermore, Tween-80 was added to the reaction system to a final concentration of 0.1% in the case of using L-Trp-OMe and L-Tyr-OMe.

Test [6] concerns Sphingobacterium sp. strain FERM BP-8124 microbial cells. Kind of test: Production of L-alanyl-L-glutamine using microbial cells of Sphingobacterium sp. It counts as cell-based. The following applies: 0.1 mL 100 g/L cell suspension + 0.1 mL buffer with 200 mM L-alanine methyl ester hydrochloride, 400 mM L-glutamine, pH 9.0, 25° C., 120 minutes. The procedure:
22, 2002). […] 1 ml of this culture broth was then added to the aforementioned medium (50 ml/500 mL Sakaguchi flask) and cultured at 30° C. for 18 hours. Following completion of the culturing, the microbial cells were separated from the culture broth by centrifugation and suspended in 0.1 M borate buffer (pH 9.0) containing 10 mM EDTA at a concentration of 100 g/L as wet microbial cells. […] The resulting 0.2 mL of mixture was allowed to react at 25° C. for 120 minutes. The concentration of L-alanyl-L-glutamine formed at this time was 62 mM.
22, 2002). […] 1 ml of this culture broth was then added to the aforementioned medium (50 ml/500 mL Sakaguchi flask) and cultured at 30° C. for 18 hours. After completion of the culture, the microbial cells were separated from the culture broth by centrifugation and suspended in 0.1 M borate buffer (pH 9.0) containing 10 mM EDTA at a concentration of 100 g/L as wet microbial cells. […] The resulting 0.2 mL of mixture was allowed to react at 25° C. for 120 minutes.

For test [7], the system named is peptide-forming enzyme from Sphingobacterium sp. strain FERM BP-8124. The test can be described thus: Production of L-alanyl-L-glutamine using SP-Sepharose HP enzyme fraction of Sphingobacterium sp. Type of test: biochemical. The conditions noted are these: 10 μl SP-Sepharose HP fraction + 90 μl buffer with 111 mM L-alanine methyl ester hydrochloride, 222 mM L-glutamine, pH 9.0, 25° C., 120 minutes. The procedure:
As a result, 73 mM of L-alanyl-L-glutamine was formed in the enzyme-added lot.

The subject of test [8] is enzyme derived from Sphingobacterium sp. strain FERM BP-8124. The test can be described thus: Substrate specificity of enzyme derived from Sphingobacterium sp. Type of test: biochemical. The conditions noted are these: Table 15-4; carboxy component 100 mM, amine component 150 mM, 0.33 units enzyme, pH 9.0, 25° C., 1.5 hours.
Test [9] has as its system peptide-forming enzyme from Empedobacter brevis strain FERM BP-8113. Kind of test: Substrate specificity of enzyme (peptide production from carboxy and amine components). It counts as biochemical. The following applies: L-amino acid amide hydrochloride 100 mM as carboxy component, L-amino acid 150 mM, pH 9.0, 25° C., 3 hours.
Test [10] shares this test system. Kind of test: Production of L-alanyl-L-glutamine from L-alanine methyl ester and L-glutamine with the Mono S fraction enzyme. The following applies: L-alanine methyl ester hydrochloride 100 mM, 18° C., 2 hours.
Where [11] appears, read: oligopeptide production, amount of enzyme 0.2 unit, pH 9.0, 25° C., 3 hours.
Setting [12] is: carboxy component 100 mM, amine component 150 mM, reaction time 3 hr.

The results in this text go back to patent US8753841B2, “Enzyme that catalyzes a peptide-forming reaction from a carboxy component and an amine component, microbe producing the same, and a method of producing a dipeptide using the enzyme or microbe” (Ajinomoto Co., Inc., priority 2002, dated 2014).

Residues, ends and D or L forms follow the SMILES beside them. *: point of attachment. Boc = CC(C)(C)OC(=O)*

For “Chymopapain: thiol endopeptidase described in EP 359399B1, purified enzyme manufactured by Sigma”, the “Ratio of L-Ala-L-Gln production rate per enzyme unit weight” value (shortened to “Ratio … per enzyme unit weight”) in [1] amounted to 0.0013. L-Ala-L-Phe-L-Met: in [2] (setting [11]), the “Produced peptide (mM)” value is given as “+”. Regarding L-Ala-Gly-Gly-L-Phe-L-Met, in test [2] (setting [11]), the “Produced peptide (mM)” value is “+”.

Regarding Bromelain, the “Ratio … per enzyme unit weight” value in test [1] was 0.0010. As for H-Ala-2-Nal-OH, in test [2] (carboxy component 20 mM, amine component 20 mM, 0.1 unit enzyme, 25° C., reaction time 3 hr), the “Produced peptide (mM)” value is “+”.

On to L-Ala-Gly-L-Phe, for which the “Produced peptide (mM)” value in [2] (oligopeptide production, amount of enzyme 0.1 unit, pH 9.0, 25° C., 3 hours) is listed as “+”.

For the molecule H-CHA-Phe-OH, the “Produced peptide (mM)” value in test [2] (carboxy component 40 mM, amine component 40 mM, 0.1 unit enzyme, 25° C., reaction time 3 hr) was “+”. Turning to H-Ser(tBu)-Gln-OH, in test [3] (carboxy component 100 mM, amine component 150 mM, reaction time 2 hr), the “Produced peptide (mM)” value was “tr”.

In the case of H-Lys(Boc)-Gln-OH, the “Produced peptide (mM)” value in [2] (carboxy component 100 mM, amine component 150 mM, 0.1 unit enzyme, 25° C., reaction time 2 hr) is listed as “+”.

For the molecule H-2-Nal-H-Gln-OH, in test [3] (carboxy component 40 mM, amine component 40 mM, reaction time 3 hr), the “Produced peptide (mM)” value is recorded as “tr”. For H-t-Leu-H-Gln-OH, the “Produced peptide (mM)” value in test [3] (setting [12]) is “tr”. Consider `C[C@H](N)C(=O)N[C@@H](CCC(N)=O)C(=O)O` [L-Ala-L-Gln, L-alanyl-L-glutamine] (H-Ala-Gln-OH), for which the results for the “Formed peptide” value in [4], in test [5] and in [9] were 68.0 mM, 74.6 mM and 7.6 mM, respectively. In [6], the “concentration of L-alanyl-L-glutamine formed” value is listed as 62 mM. For the same molecule, the L-alanyl-L-glutamine formed in test [7] was 73 mM. Besides, the “Produced peptide” value in test [8] was 0.3 mM. In addition, the “L-Ala-L-Gln” value is listed as 68.2 mM in [10] (L-glutamine 100 mM); 72.1 mM in test [10] (L-glutamine 110 mM); 73.3 mM in test [10] (L-glutamine 120 mM); 75.1 mM in test [10] (L-glutamine 130 mM); 75.5 mM in test [10] (L-glutamine 150 mM); 82.0 mM in [10] (L-glutamine 200 mM). With H-p-F-Phe-H-Gln-OH, the “Produced peptide (mM)” value in test [3] (setting [12]) is given as “tr”. For the molecule Ficin, the “Ratio … per enzyme unit weight” value in test [1] came out at 0.0017.

B1: Papain: thiol endopeptidase described in EP 359399B1, purified enzyme manufactured by Sigma (protein, UniProt P00784 134-345, looked up)
Papain: IPEYVDWRQKGAVTPVKNQGSCGSCWAFSAVVTIEGIIKIRTGNLNEYSEQELLDCDRRSYGCNGGYPWSALQLVAQYGIHYRNTYPYEGVQRYCRSREKGPYAAKTDGVRQVQPYNEGALLYSIANQPVSVVLEAAGKDFQLYRGGIFVGPCGNKVDHAVAAVGYGPNYILIKNSWGTGWGENGYIRIKRGTGNSYGVCGLYTSSFYPVKN
For the molecule B1, the “Ratio … per enzyme unit weight” value in [1] was found to be 0.0021.

B2: Carboxypeptidase Y: known enzyme described in EP 278787A1, purified enzyme manufactured by Sigma (protein, UniProt P00729 112-532, looked up)
Carboxypeptidase Y: KIKDPKILGIDPNVTQYTGYLDVEDEDKHFFFWTFESRNDPAKDPVILWLNGGPGCSSLTGLFFELGPSSIGPDLKPIGNPYSWNSNATVIFLDQPVNVGFSYSGSSGVSNTVAAGKDVYNFLELFFDQFPEYVNKGQDFHIAGESYAGHYIPVFASEILSHKDRNFNLTSVLIGNGLTDPLTQYNYYEPMACGEGGEPSVLPSEECSAMEDSLERCLGLIESCYDSQSVWSCVPATIYCNNAQLAPYQRTGRNVYDIRKDCEGGNLCYPTLQDIDDYLNQDYVKEAVGAEVDHYESCNFDINRNFLFAGDWMKPYHTAVTDLLNQDLPILVYAGDKDFICNWLGNKAWTDVLPWKYDEEFASQKVRNWTASITDEVAGEVKSYKHFTYLRVFNGGHMVPFDVPENALSMVNEWIHGGFSL
Consider B2, for which the “Ratio … per enzyme unit weight” value in [1] was determined as 0.0191.
